{"source": "paper PMC12081876", "about": "“Identification of PTGR2 inhibitors as a new therapeutic strategy for diabetes and obesity” (EMBO Molecular Medicine, 2025)", "key": {"[1]": {"assay": "Necropsy, gross and histopathological examination", "assay_type": "in vivo, mouse", "parameters": "key to Brain, Forebrain / Brain, Cerebellum and Pons / Heart: Vacuolation, cardiomyocyte / Lung: Alveolar epithelium hyperplasia / Lung: Chronic inflammation, focal / Liver: Hepatocellular adenoma, multiple / Brain, Midbrain / Kidney: Hyaline cast, renal tubule / Kidney: Cytoplasmic vacuolation, renal tubule / Kidney: Mineralization, renal tubule / Pancreas: Atrophy and accumulation adipocyte, acinar cell / Pancreas: Pancreatic islets hyperplasia / Pancreas: Lymphocytic infiltration, perivascular / Brown fat: Increased adipocyte size / White fat (Perigonadal fat) / Bone marrow, Sternum/ Femur / Bone marrow: Mineralization, focal / Bone marrow: Cellularity, decreased, bone marrow: + = Present; - =Not present; X=Not remarkable lesion; 1 = minimal (< 1%); 2 = mild (1–25%); 3 = moderate (26–50%); 4 = moderately severe (51–75%); 5 = severe/high (76–100%)", "conditions": "for overall toxicity / pathology conclusion: mice treated 26 weeks", "protocol": "The animals were sacrificed by exsanguination under anesthesia with pure carbon dioxide.\nAt necropsy, tissue samples of the submitted mice were collected and preserved in 10% neutral buffered formalin. The required tissues/organs of animals were trimmed, processed, and embedded in paraffin. Sections 3–5 μm in thickness were cut and put on slides for hematoxylin and eosin (H&E) staining. The histopathological evaluation was performed on the submitted tissues. Severity of lesions was graded according to the methods described (Shackelford et al, [2002]). Degrees of lesions were graded histopathologically from one to five depending on severity (1 = minimal; 2 = slight; 3 = moderate; 4 = moderately severe; 5 = severe/high)."}, "[2]": {"test_system": "murine PPARγ Ser273 phosphorylation", "assay": "TNFα-induced PPARγ Ser273 phosphorylation in 3T3-L1 adipocytes", "assay_type": "cell-based", "conditions": "cultured murine adipocytes", "protocol": "For cell-based assay, 3T3-L1 cells were induced differentiation one day after achieving 100% confluence with 0.5 mM IBMX, 1 µm dexamethasone and 10 μg/mL insulin in DMEM containing 10% FBS for 2 days and maintained differentiation in DMEM supplemented with 10 μg/mL insulin and 10% FBS for 4 days. The medium was changed every 2 days. […] Then TNFα was added to induce PPARγ phosphorylation in a concentration of 50 ng/ml for 15 min. Cells were harvested and lysed in RIPA buffer supplemented with 1X cOmplete™, EDTA-free Protease Inhibitor Cocktail (cat. no. 04693132001, Roche) and 1X PhosSTOP™ (cat. no. 4906845001, Roche).\nThe protein concentrations of tissue lysates were measured by Bradford reagent (cat. no. BP500-0006, Bio-Rad). The protein samples were mixed with 6X sample buffer (0.3 M Tris-HCl, pH 6.8, 0.6 M DTT, 12% SDS, 0.6% Bromophenel blue and 60% glycerol) and heated at 70 °C for 5 min. 30 μg of each sample were separated by 10% SDS-PAGE gel and were transferred to PVDF membrane. The membrane was blocked by 3% BSA in Tris-buffered saline containing 0.1% Tween-20 for 1 h at room temperature and incubated with primary antibody at 4 °C overnight. […] Protein expression of phospho-PPARγ was analyzed using ImageJ software and normalized against PPARγ and GAPDH."}, "mPPARγ LBD C313A mutant": {"biological_target": "T1, mPPARγ LBD C313A mutant (Mus musculus, UniProt P37238, C313A)", "T1 construct": "mPPARγ LBD C313A mutant", "T1 sequence (P37238 238-503 C313A limits assumed)": "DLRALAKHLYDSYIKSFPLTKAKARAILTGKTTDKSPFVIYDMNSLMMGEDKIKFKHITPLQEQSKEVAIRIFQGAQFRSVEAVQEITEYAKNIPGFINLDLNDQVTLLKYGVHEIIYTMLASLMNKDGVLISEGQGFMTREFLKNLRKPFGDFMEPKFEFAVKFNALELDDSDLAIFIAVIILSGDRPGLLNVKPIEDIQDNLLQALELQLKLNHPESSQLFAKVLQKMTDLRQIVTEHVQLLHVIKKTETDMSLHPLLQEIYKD", "assay": "Native mass spectrometry ligand binding, mPPARγ LBD C313A", "parameters": "species or system murine", "protocol": "Wide-type mPPARγ ligand binding domain (LBD), mPPARγ LBD C313A mutant, and mPPARγ LBD H351A mutant were mixed together in a 1:1:1 molar ratio and then incubated with 15-keto-PEG2 or pioglitazone in a 1:10 molar ratio for 5 min at room temperature, respectively. The protein mixture was buffer-exchanged into 500 mM ammonium acetate buffer pH 7.5 using 7 K Zeba™ Spin Desalting Column (cat. no, 89877, Thermo) and immediately introduced into a modified Q-Exactive mass spectrometer (Thermo). The sets of optimized parameters were applied to analyze the ligand binding, including the higher-energy collisional dissociation (HCD) energy of 20 V; spray voltage, 1.1 kV; capillary temperature, 200 °C; S-lens RF level, 200; and resolution, 12,500 at m/z 400. Spectra were acquired and processed manually using Thermo Xcalibur Qual Browser (version 4.4.16.14). The relative percentage of compound-bound forms was quantified by the UniDec software and the degree of effector coupling was calculated by normalizing the relative percentage of bound forms to the sum of the percentage of unbound and bound forms."}, "[3]": {"conditions": "Test group, one animal, 26 weeks"}, "[4]": {"conditions": "Test group, one value per animal, 26 weeks"}}, "note": "Several values for one entry are separate records, joined by “and”; a condition that tells them apart may be missing. Identical values can stand only once.", "data": [{"smiles": "Cc1[nH]c2nc(C(C)N3CCN(c4ccccc4)CC3)nn2c(=O)c1Cc1ccc(F)cc1", "note": "(stereo not drawn) [BPRPT0245]", "values": [{"measurement": "Pathological examination of bone marrow, brain, heart, lung, kidney, pancreas, brown fat, perigonadal fat", "setting": "[1]; 26 weeks, vs vehicle", "result": "no significant difference"}, {"measurement": "White fat (Perigonadal fat)", "setting": "[1]; Test group, first two animals, 26 weeks", "result": "X"}, {"measurement": "White fat (Perigonadal fat): Inflammatory cell infiltration", "setting": "[1]; Test group, last two animals, 26 weeks", "result": "1 (1 = minimal (< 1%)) and 2 (2 = mild (1–25%))"}, {"measurement": "Bone marrow: Cellularity, decreased, bone marrow", "setting": "[1]; [3]", "result": "-"}, {"measurement": "Bone marrow: Infiltration, lymphocyte", "setting": "[1]; [3]", "result": "1 (1 = minimal (< 1%))"}, {"measurement": "Bone marrow: Mineralization, focal", "setting": "[1]; [3]", "result": "-"}, {"measurement": "Brain, Forebrain", "setting": "[1]; Test group, one value per animal (T1,T2,T2[sic],T4), 26 weeks", "result": "X"}, {"measurement": "Brain, Cerebellum and Pons", "setting": "[1]; [4]", "result": "X"}, {"measurement": "Brain, Midbrain", "setting": "[1]; [4]", "result": "X"}, {"measurement": "Brown fat: Increased adipocyte size", "setting": "[1]; [4]", "result": "+"}, {"measurement": "Heart: Inflammatory cell infiltration/Cardiomyopathy", "setting": "[1]; [4]", "result": "2 (2 = mild (1–25%)) (3×) and 1 (1 = minimal (< 1%))"}, {"measurement": "Heart: Vacuolation, cardiomyocyte", "setting": "[1]; [4]", "result": "- (3×) and 2 (2 = mild (1–25%))"}, {"measurement": "Kidney: Cytoplasmic vacuolation, renal tubule", "setting": "[1]; [4]", "result": "2 (2 = mild (1–25%)) (3×) and -"}, {"measurement": "Kidney: Hyaline cast, renal tubule", "setting": "[1]; [4]", "result": "1 (1 = minimal (< 1%)) and - (3×)"}, {"measurement": "Kidney: Inflammatory cell infiltration, peripelvic /perivacscular", "setting": "[1]; [4]", "result": "2 (2 = mild (1–25%)) (3×) and 1 (1 = minimal (< 1%))"}, {"measurement": "Kidney: Mineralization, renal tubule", "setting": "[1]; [4]", "result": "1 (1 = minimal (< 1%)) and - (3×)"}, {"measurement": "Kidney: Tubular degeneration/regeneration with inflammatory cell infiltration", "setting": "[1]; [4]", "result": "2 (2 = mild (1–25%))"}, {"measurement": "Liver: Hepatocellular adenoma, multiple", "setting": "[1]; [4]", "result": "-"}, {"measurement": "Liver: Inflammation", "setting": "[1]; [4]", "result": "1 (1 = minimal (< 1%)) (2×) and 2 (2 = mild (1–25%)) (2×)"}, {"measurement": "Liver: Lymphocytic cell infiltration, perivascular", "setting": "[1]; [4]", "result": "1 (1 = minimal (< 1%)) (2×) and 2 (2 = mild (1–25%)) (2×)"}, {"measurement": "Liver: Steatosis", "setting": "[1]; [4]", "result": "2 (2 = mild (1–25%)) (2×) and 4 (4 = moderately severe (51–75%)) (2×)"}, {"measurement": "Lung: Alveolar epithelium hyperplasia", "setting": "[1]; [4]", "result": "2 (2 = mild (1–25%)) and - (3×)"}, {"measurement": "Lung: Chronic inflammation, focal", "setting": "[1]; [4]", "result": "1 (1 = minimal (< 1%)) (2×) and - (2×)"}, {"measurement": "Lung: Inflammatory cell infiltration, perivascular", "setting": "[1]; [4]", "result": "1 (1 = minimal (< 1%)) (2×) and 2 (2 = mild (1–25%)) (2×)"}, {"measurement": "Pancreas: Atrophy and accumulation adipocyte, acinar cell", "setting": "[1]; [4]", "result": "-"}, {"measurement": "Pancreas: Fat infiltration, exocrine", "setting": "[1]; [4]", "result": "2 (2 = mild (1–25%)) (2×) and 1 (1 = minimal (< 1%)) (2×)"}, {"measurement": "Pancreas: Lymphocytic infiltration, perivascular", "setting": "[1]; [4]", "result": "- (2×) and 2 (2 = mild (1–25%)) (2×)"}, {"measurement": "Pancreas: Pancreatic islets hyperplasia", "setting": "[1]; [4]", "result": "1 (1 = minimal (< 1%)) (2×) and - (2×)"}, {"measurement": "Bone marrow, Sternum/ Femur", "setting": "[1]; Test group, three animals, 26 weeks", "result": "X"}, {"measurement": "overall toxicity / pathology conclusion", "setting": "[1]", "result": "no detectable toxicity"}, {"measurement": "overall toxicity / pathology conclusion", "setting": "[1]; listed as test article", "result": "not related"}]}, {"smiles": "CCCCCC(=O)/C=C/[C@H]1[C@H](O)CC(=O)[C@@H]1C/C=C\\CCCC(=O)O", "note": "[15-keto-PGE2, 15-keto-prostaglandin E2]", "values": [{"measurement": "phosphorylation of PPARγ Ser273", "setting": "[2]", "result": "dose-dependently reduced phosphorylation of Ser273"}, {"measurement": "effect of C313A mutation on binding (native MS)", "setting": "mPPARγ LBD C313A mutant", "result": "almost completely abolished 15-keto-PGE2 binding"}]}]}
